Assay results from patent publication US20160340656A1, “PEPTIDES DERIVED FROM GSE 24.2 FOR TREATING DISEASES CAUSED BY OXIDATIVE STRESS AND DAMAGE TO DNA” (CONSEJO SUPERIOR DE INVESTIGACIONES CIENTÍFICAS (CSIC), priority 2013, published 2016).

Experiments:
HeLa cells = test: Internalisation of fluorescein-labelled peptides, confocal fluorescence microscopy; format: cell-based
Method: (§1) FIG. 21. Transfection of peptides GSE4 and GSE4NLS1 in HeLa cells. Peptides GSE4 and GSE4NLS1 (SEQ ID No. 7) labelled with fluorescein and obtained by chemical synthesis were transfected into HeLa cells using the Proteojuice reagent and viewed in a confocal fluorescence microscope at 9, 24 and 48 hours after transfection.
as §1, with “22. Internalisation” for “21. Transfection”, “added to the culture medium of” for “transfected into”, “cells” for “cells using the Proteojuice reagent”
Given the ability of sequence NLS1 to contribute to the activity of GSE24.2, a synthetic peptide into which this sequence was placed in the 3′ region of peptide GSE4 was constructed as this was the peptide for which the greatest telomerase activation was obtained. The peptides obtained by chemical synthesis were labelled with fluorescein to facilitate their visualisation in a fluorescence microscope. Two experiments were performed in parallel, in one the peptides were transfected using Proteojuice reagent and in the other they were added directly to the culture medium. […] An important difference observed was that when the peptides were added directly to the culture medium, the peptide entered into a higher number of cells than when Proteojuice was used. The reagent provided greater effectiveness for internalisation but into a small number of cells.

[1] = tested on: promoter of c-myc in 293T cells; test: c-myc promoter luciferase reporter activity; format: cell-based; settings: 24 hours, relative to GSE24.2
Method: FIG. 20. Activity of constructions GSE24.2NLS1-3 and GSE24.2NLS2-3 on the c-myc promoter. The expression vectors for the constructions GSE24.2, GSE24.2N LS1-3 and GSE24.2NLS2-3 were transfected (using lipofectamine) into 293T cells together with the reporter gene of the promoter of c-myc, pXP1, and 24 hours later the luciferase activity was measured using a commercial kit. The values are expressed as relative activity, considering 1 as the value of luciferase with the empty expression vector pCDNA3myc.
With the aim of evaluating biological activity of the constructions containing the signals NLS1-3 and N LS2-3, they were transfected into 293T cells together with the reporter gene of the promoter of c-myc and the luciferase activity activated by both constructions GSE24.2NLS1-3 and GSE24.2NLS2-3 was evaluated in relation to GSE24.2.

[2] = tested on: AT2078 cells of patients with ataxia telangiectasia; test: Damage to DNA in AT2078 cells: histone H2AX Ser139 foci after expression of GSE4 or SGSE4; format: cell-based, human; settings: 200 cells
Method: FIG. 14. Determination of damage to DNA in AT cells after transfecting peptides GSE4 and SGSE4: AT2078 AT cells were infected with a lentiviral vector expressing GSE4, SGSE4 or a GFP empty vector and 24 hours later were fixed for processing and hybridised with an antibody against phosphorylated histone H2AX (Ser139). Control C-1787 cells were used as the negative control. Next they were hybridised with a fluorescein-labelled antibody and were stained with DAPI to locate the nuclei.
As the peptide denominated GSE4 was the smallest sized of the peptides with ability to inhibit damage to DNA, we studied if another peptide with a similar sequence localised in the sequence of peptide GSE24.2 had the same activity or if that activity was specific to GSE4. Peptide SGSE4 (SEQ ID No. 15) is similar to GSE4 in sequence (amino acids LDPK/LDKP that constitute consensus sequences for pseudouridine synthases) and size and is found in the TRUBII domain of dyskerin. Cell lines AT2078 of patients with ataxia telangiectasia were used for this test. Cell line C-1787 was used as the control cell line. The cells were infected with the bicistronic lentiviral vector pCMV-GFP-GSE4, SGSE4 or GFP. After 48 hours of infection the cells were fixed with formaldehyde and then permeabilized by treating them with Triton X-100. The damage to DNA was estimated by studying the signal after hybridisation of the cells with an antibody against histone H2AX Ser139 and subsequent hybridisation with an antibody bound to fluorescein. The number of foci with stain for histone H2AX per nucleus was determined by confocal microscopy in a total of 200 cells and the data represented as a percentage of cells with a specific number of foci.

## GFINLDKPSNPKRKR (GSE4NLS1-3; listed as Homo sapiens)
HeLa cells; peptide simply added to the culture medium
  entry into cells: entered the cells
HeLa cells; transfected using Proteojuice reagent
  entry into cells: entered the cells

## GFINLDKPSNPSSHEVVAWIRRILRVEKTGHSGTLDPKVTGCLIVCIERATRLVKKRKR (GSE24.2NLS1-3; listed as Homo sapiens) [GSE24.2 with NLS1 in the 3′ position]
[1]
  activation of expression of the promoter of c-myc (luciferase): more effectively than GSE24.2

## HSGTLDPKVTG (listed as Homo sapiens) [SGSE4, reference compound]
[2]
  AT cells in which overall damage to DNA is corrected: not able to correct the damage to DNA

B1: GFINLDKPSNPSSHEVVAWIRRILRVEKTGHSGTLDPKVTGCLIVCIERATRLVKKKEKKKSK (peptide, listed as Homo sapiens)
chain: GFINLDKPSNPSSHEVVAWIRRILRVEKTGHSGTLDPKVTGCLIVCIERATRLVKKKEKKKSK
modifications: GSE24.2NLS2-3
notes: GSE24.2 with NLS2 in the 3′ position
[1]
  activation of expression of the promoter of c-myc (luciferase): more effectively than GSE24.2
